Source: patent US7393856B2, “Anti-viral uses of borinic acid complexes” (Anacor Pharmaceuticals, Inc., priority 2004, dated 2008)

Key:
[1] = HepG2 2.15 anti-viral evaluation assay (in vitro anti-HBV activity); assay type: cell-based, HBV aywl strain; settings: human, HepG2 2.2.15 cells (produce HBV aywl strain); HepG2 2.2.15 cells; positive control; read-out: Anti-HBV TC50
Procedure: (§1) HepG2 2.2.15 cells, which produce HBV aywl strain, were plated in 96-well collagen coated microtiter plates at a density of 2.5×10^4/well with DMEM medium supplemented with 2% fetal bovine serum. One day following plating of cells, the wells were washed and the medium was replaced with complete medium containing the test compound diluted in the medium in a half-log series.
(§2) The medium was replaced once with the fresh medium containing the freshly diluted compound three days post the initial addition of the lamivudine, a positive control compound. Cell viability was determined using CellTiter 96® Reagent (Promega, Madison, Wis.) according to the manufacturer's protocol, using a Vmax plate reader (Molecular Devices, Sunnyvale, Calif.). The mixture is metabolized by the mitochondrial enzymes of metabolically active cells to a soluble formazan product, allowing the rapid quantitative analysis of cell numbers. The media was removed and replaced with 100 μL of fresh media and 10 μL of Cell Titer 96. […] Percent cell viability of compound treated wells compared to no compound controls was calculated using an in-house computer program which graphs the percent reduction in viral cytopathic effects and the cell numbers at each drug concentration relative to control values.

HBV = assay: as above; assay type: cell-based, HBV aywl strain
Procedure: as §1, §2

[2] = In vitro anti-viral activity for HSV-1; assay type: cell-based; settings: HSV-1 assay; toxic concentration that kills 50% of cells; read-out: Anti-HSV-1 Activity TC50
HSV-1 = assay: In vitro anti-viral activity for HSV-1; assay type: cell-based; settings: Human alphaherpesvirus 1
[3] = In vitro anti-viral activity for HSV-2; assay type: cell-based; settings: HSV-2 assay; toxic concentration that kills 50% of cells; read-out: Anti-HSV-2 Activity TC50
HSV-2 = assay: In vitro anti-viral activity for HSV-2; assay type: cell-based; settings: Human alphaherpesvirus 2
[4] = In vitro anti-viral activity for HIV-1; assay type: cell-based; settings: HIV-1 assay; toxic concentration that kills 50% of cells; read-out: Anti-HIV-1 Activity TC50
HIV-1 = assay: In vitro anti-viral activity for HIV-1; assay type: cell-based; settings: Human immunodeficiency virus 1
[5] = In vitro anti-viral activity for HIV-2; assay type: cell-based; settings: HIV-2 assay; toxic concentration that kills 50% of cells; read-out: Anti-HIV-2 Activity TC50
HIV-2 = assay: In vitro anti-viral activity for HIV-2; assay type: cell-based; settings: Human immunodeficiency virus 2

Row | SMILES | CC50 [1] [µM] | Anti-viral Selectivity Index (HBV; HBV, TC50/IC50) | IC50 (HBV; Hepatitis B virus, HepG2 2.2.15 cells, positive control) [µM] | CC50 [2] [µM] | IC50 (HSV-1) [µM] | CC50 [3] [µM] | IC50 (HSV-2) [µM] | CC50 [4] [µM] | IC50 (HIV-1) [µM] | CC50 [5] [µM] | IC50 (HIV-2) [µM]
1 | Nc1ccn([C@@H]2CS[C@H](CO)O2)c(=O)n1 [Lamivudine] | > 1 | >1075 | 0.0093 | – | – | – | – | – | – | – | –
2 | Nc1nc2c(ncn2COCCO)c(=O)[nH]1 [Acyclovir, reference compound] | – | – | – | > 100 | 18 | > 100 | 7.61 | – | – | – | –
3 | Fc1ccc(B(Oc2cccc3cccnc23)c2ccc(Cl)cc2)cc1 [Compound 15, (4-Fluorophenyl)(4-chlorophenyl)borinic acid quinolin-8-yl ester] | – | – | – | > 32 | 9.68 | 32.9 | > 50 | 2.5 | 0.17 | 0.53 | 0.04
